Experimental data as given in ChEMBL document CHEMBL4229379, “Synthesis and structure-activity relationship of novel bisindole amidines active against MDR Gram-positive and Gram-negative bacteria” (Eur J Med Chem, 2018).
Converted amounts (≈) assume the structure as drawn.

Experiments:
Staphylococcus aureus [1] = test: Antibacterial activity against methicillin-sensitive Staphylococcus aureus 15 after 18 hrs by CLSI broth microdilution method; format: functional; conditions: Staphylococcus aureus, 15, 18 h
[2] = tested on: Staphylococcus epidermidis; test: Antibacterial activity against methicillin-sensitive Staphylococcus epidermidis ATCC 12228 after 18 hrs by CLSI broth microdilution method; format: functional; conditions: ATCC 12228, 18 h
Escherichia coli [3] = test: Antibacterial activity against extended-spectrum beta-lactamase deficient Escherichia coli 12-14 after 18 hrs by CLSI broth microdilution method; format: functional; conditions: 12-14, 18 h
[4] = tested on: Acinetobacter calcoaceticus; test: Antibacterial activity against Acinetobacter calcoaceticus ATCC 19606 after 18 hrs by CLSI broth microdilution method; format: functional; conditions: ATCC 19606, 18 h
Providencia rettgeri = test: Antibacterial activity against Providencia rettgeri ATCC 31052 after 18 hrs by CLSI broth microdilution method; format: functional; conditions: ATCC 31052, 18 h
Enterococcus faecalis [5] = test: Antibacterial activity against vancomycin-sensitive Enterococcus faecalis ATCC 29212 after 18 hrs by CLSI broth microdilution method; format: functional; conditions: ATCC 29212, 18 h
Enterococcus faecalis [6] = test: Antibacterial activity against vancomycin-sensitive Enterococcus faecalis 12-5 after 18 hrs by CLSI broth microdilution method; format: functional; conditions: 12-5, 18 h
Staphylococcus aureus [7] = test: Antibacterial activity against methicillin-sensitive Staphylococcus aureus ATCC 29213 after 18 hrs by CLSI broth microdilution method; format: functional; conditions: ATCC 29213, 18 h
[8] = tested on: Stenotrophomonas maltophilia; test: Antibacterial activity against Stenotrophomonas maltophilia ATCC 13636 after 18 hrs by CLSI broth microdilution method; format: functional; conditions: ATCC 13636, 18 h
Escherichia coli [9] = test: Antibacterial activity against extended-spectrum beta-lactamase harboring Escherichia coli 12-15 after 18 hrs by CLSI broth microdilution method; format: functional; conditions: 12-15, 18 h
Escherichia coli [10] = test: Antibacterial activity against extended-spectrum beta-lactamase deficient Escherichia coli ATCC 25922 after 18 hrs by CLSI broth microdilution method; format: functional; conditions: ATCC 25922, 18 h
Klebsiella pneumoniae [11] = test: Antibacterial activity against new delhi metallo-beta-lactamase-1 harboring Klebsiella pneumoniae ATCC BAA-2146 after 18 hrs by CLSI broth microdilution method; format: functional; conditions: ATCC BAA-2146, 18 h
Enterococcus faecium [12] = test: Antibacterial activity against vancomycin-sensitive Enterococcus faecium 12-3 after 18 hrs by CLSI broth microdilution method; format: functional; conditions: 12-3, 18 h
Klebsiella pneumoniae [13] = test: Antibacterial activity against extended-spectrum beta-lactamase harboring Klebsiella pneumoniae 12-8 after 18 hrs by CLSI broth microdilution method; format: functional; conditions: 12-8, 18 h
Enterococcus faecalis [14] = test: Antibacterial activity against vancomycin-resistant Enterococcus faecalis 09-9 after 18 hrs by CLSI broth microdilution method; format: functional; conditions: 09-9, 18 h
Serratia marcescens = test: Antibacterial activity against Serratia marcescens ATCC 21074 after 18 hrs by CLSI broth microdilution method; format: functional; conditions: ATCC 21074, 18 h
Klebsiella aerogenes = test: Antibacterial activity against Enterobacter aerogenes ATCC 13048 after 18 hrs by CLSI broth microdilution method; format: functional; conditions: ATCC 13048, 18 h
Enterococcus faecalis [15] = test: Antibacterial activity against vancomycin-resistant Enterococcus faecalis ATCC 51299 after 18 hrs by CLSI broth microdilution method; format: functional; conditions: ATCC 51299, 18 h
Proteus mirabilis = test: Antibacterial activity against Proteus mirabilis 12-6 after 18 hrs by CLSI broth microdilution method; format: functional; conditions: 12-6, 18 h
Pseudomonas aeruginosa [16] = test: Antibacterial activity against Pseudomonas aeruginosa PAO1 after 18 hrs by CLSI broth microdilution method; format: functional; conditions: PAO1, 18 h
Proteus vulgaris = test: Antibacterial activity against Proteus vulgaris ATCC 29905 after 18 hrs by CLSI broth microdilution method; format: functional; conditions: ATCC 29905, 18 h
[17] = tested on: Staphylococcus epidermidis; test: Antibacterial activity against methicillin-resistant Staphylococcus epidermidis 12-8 after 18 hrs by CLSI broth microdilution method; format: functional; conditions: 12-8, 18 h
Enterobacter cloacae = test: Antibacterial activity against Enterobacter cloacae ATCC 43560 after 18 hrs by CLSI broth microdilution method; format: functional; conditions: ATCC 43560, 18 h
[18] = Cytotoxicity against HEK293T cells assessed as reduction in cell viability after 48 hrs by MTS assay; format: cell-based, HEK-293T; conditions: human
Enterococcus faecium [19] = test: Antibacterial activity against vancomycin-resistant Enterococcus faecium 12-1 after 18 hrs by CLSI broth microdilution method; format: functional; conditions: 12-1, 18 h
Enterococcus faecium [20] = test: Antibacterial activity against vancomycin-resistant Enterococcus faecium ATCC 700221 after 18 hrs by CLSI broth microdilution method; format: functional; conditions: ATCC 700221, 18 h
Klebsiella pneumoniae [21] = test: Antibacterial activity against extended-spectrum beta-lactamase deficient Klebsiella pneumoniae 7 after 18 hrs by CLSI broth microdilution method; format: functional; conditions: Klebsiella pneumoniae, 7, 18 h
Staphylococcus aureus [22] = test: Antibacterial activity against methicillin-resistant Staphylococcus aureus ATCC 33591 after 18 hrs by CLSI broth microdilution method; format: functional; conditions: ATCC 33591, 18 h
Escherichia coli [23] = test: Antibacterial activity against extended-spectrum beta-lactamase deficient Escherichia coli 1515 after 18 hrs by CLSI broth microdilution method; format: functional; conditions: Escherichia coli, 1515, 18 h
Staphylococcus aureus [24] = test: Antibacterial activity against methicillin-resistant Staphylococcus aureus 12-33 after 18 hrs by CLSI broth microdilution method; format: functional; conditions: 12-33, 18 h
Klebsiella pneumoniae [25] = test: Antibacterial activity against extended-spectrum beta-lactamase harboring Klebsiella pneumoniae ATCC 700603 after 18 hrs by CLSI broth microdilution method; format: functional; conditions: Klebsiella pneumoniae, 700603, 18 h
[26] = tested on: Staphylococcus epidermidis; test: Antibacterial activity against methicillin-sensitive Staphylococcus epidermidis 12-6 after 18 hrs by CLSI broth microdilution method; format: functional; conditions: 12-6, 18 h
Citrobacter freundii = test: Antibacterial activity against Citrobacter freundii ATCC 43864 after 18 hrs by CLSI broth microdilution method; format: functional; conditions: ATCC 43864, 18 h
Pseudomonas aeruginosa [27] = test: Antibacterial activity against Pseudomonas aeruginosa ATCC 27853 after 18 hrs by CLSI broth microdilution method; format: functional; conditions: ATCC 27853, 18 h
Pseudomonas aeruginosa [28] = test: Antibacterial activity against Pseudomonas aeruginosa 12-16 after 18 hrs by CLSI broth microdilution method; format: functional; conditions: 12-16, 18 h
Klebsiella pneumoniae [29] = test: Antibacterial activity against extended-spectrum beta-lactamase deficient Klebsiella pneumoniae 12-4 after 18 hrs by CLSI broth microdilution method; format: functional; conditions: 12-4, 18 h
Staphylococcus aureus [30] = test: Antibacterial activity against methicillin-sensitive Staphylococcus aureus 12-28 after 18 hrs by CLSI broth microdilution method; format: functional; conditions: 12-28, 18 h

Row | SMILES | MIC (Staphylococcus aureus [1]) [µg/mL] | MIC [2] [µg/mL] | MIC (Escherichia coli [3]) [µg/mL] | MIC [4] [µg/mL] | MIC (Providencia rettgeri) [µg/mL] | MIC (Enterococcus faecalis [5]) [µg/mL] | MIC (Enterococcus faecalis [6]) [µg/mL] | MIC (Staphylococcus aureus [7]) [µg/mL] | MIC [8] [µg/mL] | MIC (Escherichia coli [9]) [µg/mL] | MIC (Escherichia coli [10]) [µg/mL] | MIC (Klebsiella pneumoniae [11]) [µg/mL] | MIC (Enterococcus faecium [12]) [µg/mL] | MIC (Klebsiella pneumoniae [13]) [µg/mL] | MIC (Enterococcus faecalis [14]) [µg/mL] | MIC (Serratia marcescens) [µg/mL] | MIC (Klebsiella aerogenes) [µg/mL] | MIC (Enterococcus faecalis [15]) [µg/mL] | MIC (Proteus mirabilis) [µg/mL] | MIC (Pseudomonas aeruginosa [16]) [µg/mL] | other results
1 | CC(C)NC(=N)c1ccc2cc(-c3ccc(-c4cc5ccc(C(=N)NC(C)C)cc5[nH]4)cc3)[nH]c2c1 | 0.125 (≈ 0.262 µM) | 0.125 (≈ 0.262 µM) | 4 (≈ 8.39 µM) | 16 (≈ 33.6 µM) | 4 (≈ 8.39 µM) | 0.25 (≈ 0.525 µM) | 0.5 (≈ 1.05 µM) | 0.125 (≈ 0.262 µM) | 4 (≈ 8.39 µM) | 2 (≈ 4.2 µM) | 2 (≈ 4.2 µM) | 4 (≈ 8.39 µM) | 0.25 (≈ 0.525 µM) | 2 (≈ 4.2 µM) | 0.25 (≈ 0.525 µM) | 8 (≈ 16.8 µM) | 4 (≈ 8.39 µM) | 0.25 (≈ 0.525 µM) | 16 (≈ 33.6 µM) | 4 (≈ 8.39 µM) | MIC (Proteus vulgaris): 4 µg/mL (≈ 8.39 µM); MIC [17]: 0.125 µg/mL (≈ 0.262 µM); MIC (Enterobacter cloacae): 4 µg/mL (≈ 8.39 µM); CC50 at 48 h [18]: 12.3 µg/mL (≈ 25.8 µM); MIC (Enterococcus faecium [19]): 0.25 µg/mL (≈ 0.525 µM); MIC (Enterococcus faecium [20]): 0.25 µg/mL (≈ 0.525 µM); MIC (Klebsiella pneumoniae [21]): 2 µg/mL (≈ 4.2 µM); MIC (Staphylococcus aureus [22]): 0.125 µg/mL (≈ 0.262 µM); MIC (Escherichia coli [23]): 4 µg/mL (≈ 8.39 µM); MIC (Staphylococcus aureus [24]): 0.125 µg/mL (≈ 0.262 µM); MIC (Klebsiella pneumoniae [25]): 8 µg/mL (≈ 16.8 µM); MIC [26]: 0.125 µg/mL (≈ 0.262 µM); MIC (Citrobacter freundii): 2 µg/mL (≈ 4.2 µM); MIC (Pseudomonas aeruginosa [27]): 2 µg/mL (≈ 4.2 µM); MIC (Pseudomonas aeruginosa [28]): 8 µg/mL (≈ 16.8 µM); MIC (Klebsiella pneumoniae [29]): 2 µg/mL (≈ 4.2 µM); MIC (Staphylococcus aureus [30]): 0.125 µg/mL (≈ 0.262 µM)
2 | COCCNC(=N)c1ccc2cc(-c3cncc(-c4cc5ccc(C(=N)NCCOC)cc5[nH]4)c3)[nH]c2c1 | > 64 | 64 (≈ 126 µM) | > 64 | > 64 | > 64 | > 64 | > 64 | > 64 | > 64 | > 64 | > 64 | > 64 | > 64 | > 64 | > 64 | > 64 | > 64 | > 64 | > 64 | > 64 | MIC (Proteus vulgaris): > 64 µg/mL; MIC [17]: > 64 µg/mL; MIC (Enterobacter cloacae): > 64 µg/mL; CC50 at 48 h [18]: 28 µg/mL (≈ 54.9 µM); MIC (Enterococcus faecium [19]): > 64 µg/mL; MIC (Enterococcus faecium [20]): > 64 µg/mL; MIC (Klebsiella pneumoniae [21]): > 64 µg/mL; MIC (Staphylococcus aureus [22]): > 64 µg/mL; MIC (Escherichia coli [23]): > 64 µg/mL; MIC (Staphylococcus aureus [24]): > 64 µg/mL; MIC (Klebsiella pneumoniae [25]): > 64 µg/mL; MIC [26]: 64 µg/mL (≈ 126 µM); MIC (Citrobacter freundii): > 64 µg/mL; MIC (Pseudomonas aeruginosa [27]): > 64 µg/mL; MIC (Pseudomonas aeruginosa [28]): > 64 µg/mL; MIC (Klebsiella pneumoniae [29]): > 64 µg/mL; MIC (Staphylococcus aureus [30]): > 64 µg/mL
3 | CN(C)C(=N)c1ccc2cc(-c3cnc(-c4cc5ccc(C(=N)N(C)C)cc5[nH]4)cn3)[nH]c2c1 | 1 (≈ 2.22 µM) | 0.5 (≈ 1.11 µM) | 4 (≈ 8.88 µM) | 32 (≈ 71 µM) | 16 (≈ 35.5 µM) | 4 (≈ 8.88 µM) | 8 (≈ 17.8 µM) | 1 (≈ 2.22 µM) | 32 (≈ 71 µM) | 16 (≈ 35.5 µM) | 4 (≈ 8.88 µM) | 16 (≈ 35.5 µM) | 4 (≈ 8.88 µM) | 16 (≈ 35.5 µM) | 4 (≈ 8.88 µM) | 128 (≈ 284 µM) | 16 (≈ 35.5 µM) | 8 (≈ 17.8 µM) | 64 (≈ 142 µM) | > 128 | MIC (Proteus vulgaris): 16 µg/mL (≈ 35.5 µM); MIC [17]: 1 µg/mL (≈ 2.22 µM); MIC (Enterobacter cloacae): 8 µg/mL (≈ 17.8 µM); CC50 at 48 h [18]: 13 µg/mL (≈ 28.8 µM); MIC (Enterococcus faecium [19]): 2 µg/mL (≈ 4.44 µM); MIC (Enterococcus faecium [20]): 4 µg/mL (≈ 8.88 µM); MIC (Klebsiella pneumoniae [21]): 16 µg/mL (≈ 35.5 µM); MIC (Staphylococcus aureus [22]): 1 µg/mL (≈ 2.22 µM); MIC (Escherichia coli [23]): 4 µg/mL (≈ 8.88 µM); MIC (Staphylococcus aureus [24]): 4 µg/mL (≈ 8.88 µM); MIC (Klebsiella pneumoniae [25]): 64 µg/mL (≈ 142 µM); MIC [26]: 4 µg/mL (≈ 8.88 µM); MIC (Citrobacter freundii): 8 µg/mL (≈ 17.8 µM); MIC (Pseudomonas aeruginosa [27]): 128 µg/mL (≈ 284 µM); MIC (Pseudomonas aeruginosa [28]): > 128 µg/mL; MIC (Klebsiella pneumoniae [29]): 16 µg/mL (≈ 35.5 µM); MIC (Staphylococcus aureus [30]): 1 µg/mL (≈ 2.22 µM)
